From US10023593B2, “ALK kinase inhibitor, and preparation method and uses thereof” (BEIJING PEARL BIOTECHNOLOGY LIMITED LIABILITY COMPANY, priority 2014, dated 2018) come the findings set out here.

Assay [1] relates to Karpas-299 cell line. Briefly: CellTiter-Glo cell proliferation inhibition on Karpas-299 cell line. Type of assay: cell-based. As to conditions: Homo sapiens, 96 h, Karpas-299 cells, 5000 cells/well, 4 days drug treatment. The essentials: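 Karpas-299 cells (5000/well, RPMI-1640 + 10% FBS) pre-incubated 2 h at 37 °C, then treated with compound (0.5% DMSO final) for 4 days. Viability read by CellTiter-Glo luminescence; inhibition calculated against DMSO control, IC50 fitted.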

The target in assay [2] is T1, L1196M mutant ALK kinase (Homo sapiens, UniProt Q9UM73, L1196M).
T1 construct: purchased Sino-US Crown Bioscience, Inc. batch number ALKm_20110923
T1 sequence (Q9UM73 19-1620 L1196M): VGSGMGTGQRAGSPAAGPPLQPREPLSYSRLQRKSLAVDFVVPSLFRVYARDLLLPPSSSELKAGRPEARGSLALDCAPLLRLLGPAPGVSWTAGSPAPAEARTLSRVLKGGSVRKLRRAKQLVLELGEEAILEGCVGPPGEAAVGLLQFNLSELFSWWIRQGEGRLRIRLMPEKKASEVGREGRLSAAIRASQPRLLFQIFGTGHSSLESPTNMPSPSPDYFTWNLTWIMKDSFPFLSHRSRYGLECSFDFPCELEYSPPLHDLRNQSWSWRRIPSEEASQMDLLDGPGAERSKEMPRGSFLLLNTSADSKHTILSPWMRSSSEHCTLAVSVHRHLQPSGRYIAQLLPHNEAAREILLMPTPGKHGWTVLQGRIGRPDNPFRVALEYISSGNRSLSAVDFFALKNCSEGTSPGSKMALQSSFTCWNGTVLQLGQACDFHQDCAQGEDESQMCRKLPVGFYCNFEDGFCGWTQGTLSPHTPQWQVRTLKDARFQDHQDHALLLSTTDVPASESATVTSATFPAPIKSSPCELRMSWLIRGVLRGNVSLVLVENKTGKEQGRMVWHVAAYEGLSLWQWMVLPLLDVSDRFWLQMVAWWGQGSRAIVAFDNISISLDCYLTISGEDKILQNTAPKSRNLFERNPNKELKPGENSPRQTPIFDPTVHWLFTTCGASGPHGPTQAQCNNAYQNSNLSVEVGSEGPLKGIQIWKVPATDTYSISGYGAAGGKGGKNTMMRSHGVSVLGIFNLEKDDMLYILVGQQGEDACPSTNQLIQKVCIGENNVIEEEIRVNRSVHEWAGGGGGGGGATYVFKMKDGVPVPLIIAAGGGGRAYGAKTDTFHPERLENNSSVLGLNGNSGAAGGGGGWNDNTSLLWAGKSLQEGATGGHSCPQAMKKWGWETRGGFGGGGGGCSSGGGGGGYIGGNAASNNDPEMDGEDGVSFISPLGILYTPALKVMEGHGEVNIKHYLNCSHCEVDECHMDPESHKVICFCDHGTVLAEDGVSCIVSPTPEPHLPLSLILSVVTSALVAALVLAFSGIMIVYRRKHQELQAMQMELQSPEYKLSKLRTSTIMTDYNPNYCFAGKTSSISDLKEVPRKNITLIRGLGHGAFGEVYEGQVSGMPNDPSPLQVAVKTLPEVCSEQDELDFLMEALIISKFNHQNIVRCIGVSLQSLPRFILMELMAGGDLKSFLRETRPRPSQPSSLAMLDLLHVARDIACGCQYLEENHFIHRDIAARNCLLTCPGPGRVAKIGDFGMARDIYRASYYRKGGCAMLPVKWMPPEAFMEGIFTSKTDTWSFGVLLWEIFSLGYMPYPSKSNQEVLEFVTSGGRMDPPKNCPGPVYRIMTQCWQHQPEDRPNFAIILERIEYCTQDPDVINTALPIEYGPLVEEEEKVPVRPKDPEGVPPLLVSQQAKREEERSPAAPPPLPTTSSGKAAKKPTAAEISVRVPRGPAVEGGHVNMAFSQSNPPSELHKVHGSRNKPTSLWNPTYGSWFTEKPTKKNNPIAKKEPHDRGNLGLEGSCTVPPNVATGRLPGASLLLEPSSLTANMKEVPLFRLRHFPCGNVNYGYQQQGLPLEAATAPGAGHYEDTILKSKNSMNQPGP
Put plainly: HTRF KinEASE-TK assay, inhibitory activity on L1196M mutant ALK kinase. Type of assay: biochemical. The settings on record: L1196M mutant ALK 1 ng/μl, substrate 1 μM, ATP 5 μM, 30° C. 35 minutes, read-out: Inhibition on ALK kinases (L1196M mutant), IC50. The essentials:
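HTRF TK assay: mutant kinase 1 ng/μl, substrate 1 μM, ATP 5 μM, 5 mM MgCl2, 1 mM DTT, 1% DMSO, 35 min at 30 °C. 665/615 ratio read; inhibition normalised to no-compound and 10.4 μM LDK-378 controls; IC50 from curve fit.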

Regarding `Cc1cc(Nc2ncc(Cl)c(Nc3cn(C)nc3S(=O)(=O)C(C)C)n2)c(OC2CC2)cc1C1CCN(CCN(C)C)CC1` [Final product 146, 5-chloro-N^2-(2-cyclopropoxy-4-(1-(2-(dimethylamino)ethyl)piperidin-4-yl)-5-methylphenyl)-N^4-(3-(isopropylsulfonyl)-1-methyl-1H-pyrazol-4-yl)-pyrimidin-2,4-diamine], the IC50 in assay [1] worked out at 0.015 µM; in assay [2], 0.005 µM.

`Cc1cc(Nc2ncc(Cl)c(Nc3cn(C)nc3S(=O)(=O)C(C)C)n2)c(OC(C)C)cc1C1CCN(C(C)(C)CO)CC1` [Final product 152]: the IC50 is 0.007 µM in assay [1] and 0.009 µM in assay [2].

Take `Cc1cc(Nc2ncc(Cl)c(Nc3cn(C)nc3S(=O)(=O)C(C)C)n2)c(OC2CC2)cc1OC1CCN(C)CC1` [Final product 111]: the half-maximal inhibitory concentration (IC50) in assay [1] stood at 0.016 µM; in assay [2] it was 0.007 µM.

For `CC(=O)N1CCC(c2cc(OC3CC3)c(Nc3ncc(Cl)c(Nc4cn(C)nc4S(=O)(=O)C(C)C)n3)cc2C)CC1` [Final product 160, 1-acetyl-4-(4-(5-chloro-4-(3-(isopropylsulfonyl)-1-methyl-1H-pyrazol-4-amino)pyrimidin-2-amine)-5-cyclopropoxy-2-methylphenyl)piperidine], the values for the concentration for half-maximal inhibition (IC50) in assay [1] and in assay [2] were 0.014 µM and 0.009 µM, respectively.

With `Cc1cc(Nc2ncc(Cl)c(Nc3cn(C)nc3S(=O)(=O)CC(C)C)n2)c(OC2CC2)cc1[C@H]1CC[C@H](NC(C)C)CC1` [Final product 182], the IC50 in assay [1] was determined as 0.015 µM; in assay [2], 0.022 µM.

For `CCC(C)S(=O)(=O)c1nn(C)cc1Nc1nc(Nc2cc(C)c(C3CCNCC3)cc2OC(C)C)ncc1Cl` (stereo not drawn) [Final product 7], the half-maximal inhibitory concentration (IC50) turned out to be 0.021 µM in assay [1] and 0.012 µM in assay [2].

In the case of `Cc1cc(Nc2ncc(Cl)c(Nc3cn(C)nc3S(=O)(=O)C(C)C)n2)c(OC2CC2)cc1C1CCN(C2CC2)CC1` [Final product 157], the IC50 in assay [1] was found to be 0.013 µM; in assay [2], 0.011 µM.

`CCN1CCC(c2cc(OC(C)C)c(Nc3ncc(Cl)c(Nc4cn(C)nc4S(=O)(=O)C(C)C)n3)cc2C)CC1` [Final product 118]: the figures for the half-inhibitory concentration (IC50) in assay [1] and in assay [2] were 0.009 µM and 0.01 µM, respectively.

For `Cc1cc(Nc2ncc(Cl)c(Nc3cn(C)nc3S(=O)(=O)C(C)C)n2)c(OC(CF)CF)cc1C1CCN(C)CC1` [Final product 34], the concentration for half-maximal inhibition (IC50) in assay [1] amounted to 0.062 µM; in assay [2], 0.023 µM.
